Experiments:
[1] = target: T1, SYK(KD)-NL or NL-SYK(KD) (Homo sapiens, UniProt P43405); assay: NanoBRET tracer optimization with SYK kinase domain only constructs; type: cell-based; conditions: with or without digitonin, N- or C-terminal NL
T1 construct: N- and C-terminally-tagged NL SYK kinase domain constructs lacking the tandem SH2 domains were prepared; expressed in transfected cells; host or cells: HEK293
Description: HEK293 cells were transfected with constructs of SYK (WT, KD, and GoF variants) tagged with NL on the N- or C-terminus as previously described ([Wells et al., 2021]). Constructs for NanoBRET measurements of SYK(WT) (NL-SYK(WT) and SYK(WT)-NL) and SYK GoF variants (SYK(S550Y)-NL, SYK(S550F)-NL, SYK(P342T)-NL, SYK(M450I)-NL, and SYK(A353T)-NL) were kindly provided by Promega. NL orientations used in the respective assays are indicated. Cells were plated in 96-well tissue culture-treated plates (Corning, #3917) at a cell density of 2 × 10^5 cells/mL, with a total volume of 100 μL per well in DMEM +10% FBS. After 16 h, the media was aspirated from the plate and replaced with room temperature Opti-MEM without phenol red (Gibco, #11058021), 100 μL in no tracer wells; 95 μL in tracer only wells; 90 μL in no tracer wells and with digitonin treated plates, 90 μL in no tracer wells; 85 μL in tracer only wells; 80 μL in no tracer wells. Plates were incubated for 25 min at room temperature if digitonin was added or for 2 h at 37°C in 5% CO2 for the intact cell NanoBRET assay. NanoBRET plates were read after the addition of 50 μL of a stock solution (3X) containing NanoBRET NanoGlo substrate (Promega, #N2161), extracellular NanoLuc inhibitor (Promega, #N2161) when reading assay plates performed in intact live cells, and Opti-MEM without phenol red (Gibco, #11058021). For intact live cells in a 96-well plate, the 3X stock solution was prepared with 30 μL of NanoBRET NanoGlo substrate, 10 μL of extracellular NanoLuc inhibitor, and 4,960 μL of Opti-MEM without phenol red. For digitonin permeabilized live cells in a 96-well plate, the 3X stock solution was prepared with 30 μL of NanoBRET NanoGlo substrate and 4,970 μL of Opti-MEM without phenol red. Raw milliBRET units (mBU) were read on a GloMax Discover system (Promega) with a donor emission wavelength of 450 nm and an acceptor emission wavelength of 600 nm. mBU were calculated by dividing the acceptor emission values (600 nm) by the donor emission values (450 nm). For NanoBRET studies with SYK, background corrected mBU were calculated by subtracting the no tracer wells from the tracer-containing wells and multiplying by 1,000. Where the results are reported as a BRET fold change, this is the BRET ratio for the vehicle-treated sample divided by BRET for the inhibitor-treated sample.
HEK293 cells were transfected with constructs of SYK(WT) or SYK(KD) tagged with NL on the C- or N-terminus and SYK GoF variants tagged with NL on the C-terminus. Tracer 8 (20X) was prepared from a 400 μM stock solution in DMSO with tracer dilution buffer (Promega, #N291B) and 20% DMSO, with a final assay plate concentration of 1% DMSO. […]

[2] = target: T2, SYK(WT)-NL (Homo sapiens, UniProt P43405); assay: NanoBRET assay in digitonin permeabilized HEK293 cells, SYK(WT)-NL; type: cell-based; conditions: C-terminal NL fusion, tracer 0.5, 1, 2 μM
T2 construct: SYK tracers enable BRET with full-length SYK(WT) after digitonin permeabilization; host or cells: HEK293
Description: We performed NanoBRET tracer optimization to determine if the SYK tracers could effectively generate a BRET signal. […] To enable the NanoBRET assay using tracer 8 with cells permeabilized by digitonin, a tracer dose–response study was performed for each SYK(GoF) variant and SYK(WT) (Figure 3A), followed by tracer titration experiments (Figure 3B; Supplementary Figure S3). […] Initially, we determined the EC50 of tracer 8 for each SYK(GoF) variant and SYK(WT). […] Plates were incubated for 25 min at room temperature if digitonin was added or for 2 h at 37°C in 5% CO2 for the intact cell NanoBRET assay. […] For intact live cells in a 96-well plate, the 3X stock solution was prepared with 30 μL of NanoBRET NanoGlo substrate, 10 μL of extracellular NanoLuc inhibitor, and 4,960 μL of Opti-MEM without phenol red. For digitonin permeabilized live cells in a 96-well plate, the 3X stock solution was prepared with 30 μL of NanoBRET NanoGlo substrate and 4,970 μL of Opti-MEM without phenol red. Raw milliBRET units (mBU) were read on a GloMax Discover system (Promega) with a donor emission wavelength of 450 nm and an acceptor emission wavelength of 600 nm. mBU were calculated by dividing the acceptor emission values (600 nm) by the donor emission values (450 nm). For NanoBRET studies with SYK, background corrected mBU were calculated by subtracting the no tracer wells from the tracer-containing wells and multiplying by 1,000.
HEK293 cells were transfected with constructs of SYK(WT) or SYK(KD) tagged with NL on the C- or N-terminus and SYK GoF variants tagged with NL on the C-terminus. Tracer 8 (20X) was prepared from a 400 μM stock solution in DMSO with tracer dilution buffer (Promega, #N291B) and 20% DMSO, with a final assay plate concentration of 1% DMSO. 5 μL of 8 (20X) was added to each well, with exception of the no tracer control wells, with final plate concentrations of 0.5, 1, and 2 μM. 10 μL of digitonin (Fisher, 10X, 500 μg/mL) was added to specific wells to permeabilize the cells. The 10X digitonin stock was prepared by diluting a 40X DMSO solution of digitonin with room temperature Opti-MEM without phenol red, for a final assay plate concentration of 1% DMSO. SYK inhibitor stock solutions of MRL-SYKi (10X) were prepared from 10 mM DMSO stock solutions with room temperature Opti-MEM without phenol red, for final assay plate concentrations of 10 μM. Plates were incubated for 25 min at room temperature if digitonin was added or for 2 h at 37°C in 5% CO2 for the intact cell NanoBRET assay. Two technical replicates were plotted in a bar chart with the standard deviation represented as error bars on Graphpad Prism.

[3] = target: T3, SYK (Homo sapiens, UniProt P43405); assay: Eurofins DiscoverX SYK enzymatic radiometric assay; type: biochemical; conditions: for IC50: Km value for ATP, 9-pt dose-response
T3 construct: purchased Eurofins DiscoverX (contract assay service)
Description: Eurofins kinase enzymatic radiometric assays were executed at the Km value for ATP in dose–response (9-pt curve) format for SYK, included in Table 1 as enzymatic IC50 values.

[4] = system: FGR, MLK1, YES, FLT3, PAK5, LYN, SRC, and LCK; conditions: ref Coffey et al., 2012, Spurgeon et al., 2013, cited from earlier work

SMILES | BRET signal [1] | BRET signal (background subtracted) [2] | IC50 [3] [nM] | decrease in potency compared to the parent inhibitor MRL-SYKi ([3]; ratio of enzymatic IC50) [fold] | inhibition of eight kinases ([4]; at 300 nM) | IC50 ([4]; dose-response, read-out: enzymatic IC50 of the closest off-target) [nM] | closest off-target less potent compared to SYK [4] [fold]
NC(=O)c1cnc(N[C@@H]2CCCC[C@@H]2N)nc1Nc1cccc(-n2nccn2)c1 [Tracer P505-15] |  |  |  |  | greater than 80% | 81 | 81
Cn1ncc2ccc(-c3cn4ccnc4c(Nc4ccc(N5CCNCC5)cc4)n3)cc21 [Tracer 3] |  |  | 97 |  |  |  | 
Cn1ncc2ccc(-c3cn4ccnc4c(Nc4ccc(N5CCN(C(=O)CCc6ccc7n6[B-](F)(F)[N+]6=C(c8ccc[nH]8)C=CC6=C7)CC5)cc4)n3)cc21 [Tracer 4] | did not generate a BRET signal | did not generate a BRET signal | > 10000 |  |  |  | 

Continued, in another order:

BRET signal [1] | BRET signal (background subtracted) [2] | IC50 [3] [nM] | decrease in potency compared to the parent inhibitor MRL-SYKi ([3]; ratio of enzymatic IC50) [fold] | SMILES | inhibition of eight kinases ([4]; at 300 nM) | IC50 ([4]; dose-response, read-out: enzymatic IC50 of the closest off-target) [nM] | closest off-target less potent compared to SYK [4] [fold]
did not generate a BRET signal | 4 mBU | 2400 |  | O=C(CCc1ccc2n1[B-](F)(F)[N+]1=C(c3ccc[nH]3)C=CC1=C2)NCCOCCOCCOCCC(=O)N1CCN(c2ccc(Nc3nc(-c4ccc5cn[nH]c5c4)cn4ccnc34)cc2)CC1 [Tracer 2] |  |  | 
did not generate a BRET signal | > 10 mBU | 1400 |  | CC1(C)Oc2ccc(Nc3nc(Nc4cccc(OCC(=O)NCCNC(=O)CCc5ccc6n5[B-](F)(F)[N+]5=C(c7ccc[nH]7)C=CC5=C6)c4)ncc3F)nc2NC1=O [Tracer 6] |  |  | 
 | > 10 mBU | 470 | 15.6 | Cc1cc(Nc2nccc(C)n2)cc(-c2cnc([C@@]3(O)CC[C@H](C(=O)NCCOCCOCCOCCNC(=O)CCc4ccc5n4[B-](F)(F)[N+]4=C(c6ccc[nH]6)C=CC4=C5)C(C)(C)C3)s2)c1 [Tracer 7] |  |  | 
did not generate a BRET signal | > 10 mBU | 1100 |  | CC1(C)Oc2ccc(Nc3nc(Nc4cccc(OCC(=O)NCCOCCOCCOCCNC(=O)CCc5ccc6n5[B-](F)(F)[N+]5=C(c7ccc[nH]7)C=CC5=C6)c4)ncc3F)nc2NC1=O [Tracer 5] |  |  | 
